From ChEMBL document CHEMBL1201862, “PubChem BioAssay data set” (2004)
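Dose response: 5 concentrations. Exposure: 48 h. Format: 96-well plates. Endpoint: linear interpolation; highest concentration if not reached. GI50 marks 50% less growth.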 Activity calls are given as the source filed them. Rule as the data show it: active = GI50 up to about 1.1 µM and inactive = higher.

Tests used:
Test in all cases: DTP human tumour cell line panel, 48 h
[1] = tested on: DU-145
[2] = tested on: HL-60
[3] = tested on: SK-MEL-5
[4] = tested on: COLO 205
[5] = tested on: NCI/ADR-RES
[6] = tested on: SW-620
[7] = tested on: HCT-15
[8] = tested on: T47D
[9] = tested on: PC-3
[10] = tested on: UO-31
[11] = tested on: RPMI-8226
[12] = tested on: MCF7
[13] = tested on: SK-MEL-2
[14] = tested on: UACC-62
[15] = tested on: A549
[16] = tested on: NCI-H522
[17] = tested on: OVCAR-8
[18] = tested on: MDA-MB-435
[19] = tested on: SK-OV-3
[20] = tested on: U-251

Structure (SMILES)	GI50 [1]	GI50 [2]	GI50 [3]	GI50 [4]	GI50 [5]	GI50 [6]	GI50 [7]	GI50 [8]	GI50 [9]	GI50 [10]	GI50 [11]	GI50 [12]	GI50 [13]	GI50 [14]	GI50 [15]	GI50 [16]	GI50 [17]	GI50 [18]	GI50 [19]	GI50 [20]
CO[C@]12CC(=O)C3(C(C[C@H]4CC5CC=C6C[C@@H](OC(C)=O)CC[C@]6(OC(C)=O)C5C[C@@]43C)C1)C1C[C@H]3[C@@H]4CC=C5C[C@@H](OC(C)=O)CC[C@]5(OC(C)=O)[C@H]4CC[C@]3(C)C12 (stereo not given in full)	16.5 µM (inactive)	14.9 µM (inactive)	3.53 µM (inactive)	3.1 µM (inactive)	14 µM (inactive)	41 µM (inactive)	21.6 µM	10.9 µM (inactive)	10.7 µM (inactive)	16.1 µM (inactive)	7.18 µM (inactive)	17.3 µM (inactive)	18.1 µM (inactive)	20.4 µM (inactive)	21.9 µM (inactive)	14 µM (inactive)	24.1 µM (inactive)	18.8 µM (inactive)	62.1 µM (inactive)	17.5 µM (inactive)
CSC(SC)=C(C(=O)c1ccc(Cl)cc1)n1c(=O)sc2cc(Br)ccc21	> 100 µM (inactive)	> 100 µM (inactive)	> 100 µM (inactive)	66.4 µM (inactive)	> 100 µM (inactive)	> 100 µM (inactive)	> 100 µM	> 100 µM (inactive)	> 100 µM (inactive)	> 100 µM (inactive)	> 100 µM (inactive)	> 100 µM (inactive)	> 100 µM (inactive)	> 100 µM (inactive)	> 100 µM (inactive)	> 100 µM (inactive)	> 100 µM (inactive)	> 100 µM (inactive)	> 100 µM (inactive)	> 100 µM (inactive)
Cc1c(/N=C/C=C/c2ccccc2)c(=O)n(-c2ccccc2)n1C	33.9 µM (inactive)	16.1 µM (inactive)	15.3 µM (inactive)	> 100 µM (inactive)	25.9 µM (inactive)	23 µM (inactive)	47 µM	23 µM (inactive)	33 µM (inactive)	36.5 µM (inactive)	14.3 µM (inactive)	21.9 µM (inactive)	88.7 µM (inactive)	17.2 µM (inactive)	> 100 µM (inactive)	50.8 µM (inactive)	17.4 µM (inactive)	34.4 µM (inactive)	> 100 µM (inactive)	15.6 µM (inactive)
COC(=O)/C=C1\C(=O)C=C2[C@@H]3C[C@H]4C[C@H](CC[C@@]4(C)N21)C3(C)NC(C)=O (stereo not given in full)	10.7 µM (inactive)	5.55 µM (inactive)	11.1 µM (inactive)	5.9 µM (inactive)	26.5 µM (inactive)	2.8 µM (inactive)	11.5 µM	7.23 µM (inactive)	15.1 µM (inactive)	19.5 µM (inactive)	4.06 µM (inactive)	7.18 µM (inactive)	18.4 µM (inactive)	17.6 µM (inactive)	23.6 µM (inactive)	1.42 µM (inactive)	16.6 µM (inactive)	9.02 µM (inactive)	24.2 µM (inactive)	17 µM (inactive)
CC1=C(C(=O)OC2CC3CCC2(C)C3(C)C)C2Nc3ccccc3N(C)C2O1 (stereo not given)	1.47 µM (inactive)	2.1 µM (inactive)	1.69 µM (inactive)	0.918 µM (active)	2.99 µM (inactive)	2.14 µM (inactive)	2.01 µM	3.04 µM (inactive)	2.52 µM (inactive)	2.5 µM (inactive)	2.17 µM (inactive)	2.36 µM (inactive)	2.35 µM (inactive)	1.98 µM (inactive)	2.05 µM (inactive)	1.93 µM (inactive)	2.37 µM (inactive)	1.54 µM (inactive)	4.43 µM (inactive)	3.58 µM (inactive)
C[N+](C)(CCCCCC[N+](C)(C)CCCN1C(=O)c2cccc3cccc(c23)C1=O)CCCN1C(=O)c2cccc3cccc(c23)C1=O	> 100 µM (inactive)	> 100 µM (inactive)	> 100 µM (inactive)	> 100 µM (inactive)	> 100 µM (inactive)	> 100 µM (inactive)	> 100 µM	> 100 µM (inactive)	> 100 µM (inactive)	> 100 µM (inactive)	> 100 µM (inactive)	> 100 µM (inactive)	> 100 µM (inactive)	33 µM (inactive)	> 100 µM (inactive)	> 100 µM (inactive)	> 100 µM (inactive)	> 100 µM (inactive)	> 100 µM (inactive)	> 100 µM (inactive)
CCCCCCCCCCCCCCCCOc1ccc(/C=C/C2=[N+](CCCl)CCO2)cc1	> 100 µM (inactive)	12 µM (inactive)	> 100 µM (inactive)	67.6 µM (inactive)	56.1 µM (inactive)	> 100 µM (inactive)	> 100 µM	> 100 µM (inactive)	> 100 µM (inactive)	> 100 µM (inactive)	> 100 µM (inactive)	> 100 µM (inactive)	> 100 µM (inactive)	> 100 µM (inactive)	> 100 µM (inactive)	> 100 µM (inactive)	42 µM (inactive)	> 100 µM (inactive)	> 100 µM (inactive)	32.9 µM (inactive)
O=C1C=C(NCCc2cc(Br)c(O)c(Br)c2)C(=O)c2[nH]cnc21	36.7 µM (inactive)	> 10 µM (inactive)	15.6 µM (inactive)	24.7 µM (inactive)	> 100 µM (inactive)	21.6 µM (inactive)	18 µM	30.3 µM (inactive)	3.69 µM (inactive)	75 µM (inactive)	> 10 µM (inactive)	22.9 µM (inactive)	23.4 µM (inactive)	19.5 µM (inactive)	32 µM (inactive)	21.2 µM (inactive)	38.7 µM (inactive)	15.6 µM (inactive)	41.2 µM (inactive)	38.3 µM (inactive)
O=C1CC(n2ccnc2)c2c(Cl)sc(Cl)c21 (stereo not given)	16.1 µM (inactive)	51.8 µM (inactive)	18.4 µM (inactive)	18.2 µM (inactive)	23.8 µM (inactive)	11 µM (inactive)	14.2 µM	21.9 µM (inactive)	15.7 µM (inactive)	14 µM (inactive)	2.28 µM (inactive)	4.94 µM (inactive)	21.4 µM (inactive)	15.5 µM (inactive)	24.5 µM (inactive)	6.31 µM (inactive)	13.1 µM (inactive)	17.1 µM (inactive)	23.1 µM (inactive)	17.7 µM (inactive)
C[C@H]1[C@H](C)N1CC(O)Cn1ccnc1[N+](=O)[O-] (stereo not given in full)	> 100 µM (inactive)	> 100 µM (inactive)	> 100 µM (inactive)	> 100 µM (inactive)	> 100 µM (inactive)	> 100 µM (inactive)	> 100 µM	> 100 µM (inactive)	> 100 µM (inactive)	> 100 µM (inactive)	> 100 µM (inactive)	> 100 µM (inactive)	> 100 µM (inactive)	> 100 µM (inactive)	> 100 µM (inactive)	> 100 µM (inactive)	> 100 µM (inactive)	> 100 µM (inactive)	> 100 µM (inactive)	> 100 µM (inactive)
